Reference: patent US20140066385A1, “METHOD FOR TREATING CANCER BY COMBINED USE OF DRUGS” (Astellas Pharma Inc., priority 2011, published 2014)

Test system: human non-small cell lung cancer (Calu-6)
Assay: Example 2: FK330 with multicycle paclitaxel in Calu-6 tumor-bearing mice
Format: in vivo, nude mice
Conditions: for tumor volume reduction ratio compared with the paclitaxel-only group: FK330 100 mg/kg bid p.o. continuously + paclitaxel 10 mg/kg/day i.v. multicycle, P<0.01
Description: The dose of FK330 is expressed in weight including the hydrate. A paclitaxel injectable preparation (paclitaxel injection liquid, “Sawai”) was purchased from Sawai Pharmaceutical Co., Ltd., and was used as paclitaxel.
FK330 was suspended (20 mg/mL) in a 0.5% aqueous methyl cellulose solution (0.5% MC). Paclitaxel was prepared with physiological saline for injection (Otsuka Pharmaceutical Group) to a concentration of 1 mg/mL at the time of use.
Human lung cancer-derived Calu 6 (HTB-56) was obtained from American Type Culture Collection (VA, USA). The cells were cultured under the conditions of 37° C. and 5% CO2 by using RPMI1640 medium containing 10% heat-inactivated fetal bovine serum (FBS). The cells were harvested with trypsin and were suspended in PBS at 6×10^7 cells/mL, and the suspension was mixed with an equal amount of Matrigel (trade name) Basement Membrane Matrix (manufactured by Becton Dickinson Co., Bedford, Mass., USA).
Five-week old male nude mice (CAnN Cg-Foxn1nu/CrICrlj(nu/nu)) were purchased from Charles River Laboratories Japan, Inc. (Japan, Kanagawa). The animals were raised under specific pathogen-free (SPF) conditions throughout the test period by feeding standard feedstuff and drinking water. The cultured cells were subcutaneously inoculated into the dorsal region of the nude mice at a concentration of 3×10^6 cells/0.1 mL/mouse. Nude mice which had the tumor volumes (major axis×[minor axis]^2×0.52) ranging from 136.5 mm^3 to 299.0 mm^3 were assigned by using SAS to minimize the fluctuation in the tumor volume between the groups and within the group.
The first day of administration was designated as Day 1, and observation was made until Day 83. The respective groups (n=6) were treated as follows. FK330 was orally gavaged in an amount of 5 mL/kg, and paclitaxel was administered intravenously through the tail vein in an amount of 10 mL/kg. Paclitaxel was continuously administered from Day 1 to Day 7, and then was withdrawn for 23 days (1 cycle). In the administration of PTX in the second cycle and the third cycle, PTX was continuously administered for 6 days from Day 31 and from Day 60, respectively. […]
Every 2 to 4 days, the body weight and the tumor diameters, determined by using a digital caliper, were measured. The tumor volume was calculated from the calculation formula for ellipsoid volume of (major axis×[minor axis]^2×0.52).
The results are expressed as the mean value (Mean)±standard error (SEM). […] Using the actual measured values of the tumor volume at the end of the study, an unpaired statistical test (Student's t-test) of the difference between two groups was carried out between a single administration group and a combined use group. […]

| SMILES | tumor volume reduction ratio compared with the paclitaxel-only group (Day 29) | tumor volume reduction ratio compared with the paclitaxel-only group (Day 60) | tumor volume reduction ratio compared with the paclitaxel-only group (Day 83) | anti-tumor effect of paclitaxel as a result of multicycle administration (paclitaxel 10 mg/kg/day i.v. alone, three cycles, until Day 83) |
| --- | --- | --- | --- | --- |
| O=C(/C=C/c1ccc(Cl)cc1)N[C@@H](Cc1ccccn1)C(=O)NCC(=O)N1CCC(Oc2cc(C(F)(F)F)ncn2)CC1 [FK330, N^2-[(2E)-3-(4-chlorophenyl)-2-propenoyl]-N-[2-oxo-2-(4-{[6-(trifluoromethyl)pyrimidin-4-yl]oxy}piperidin-1-yl)ethyl]-3-pyridin-2-yl-L-alaninamide] | 57.6% | 86.1% | 87.6% | – |
| CC(=O)O[C@H]1C(=O)[C@@]2(C)[C@H]([C@H](OC(=O)c3ccccc3)[C@]3(O)C[C@H](OC(=O)[C@H](O)[C@@H](NC(=O)c4ccccc4)c4ccccc4)C(C)=C1C3(C)C)[C@]1(OC(C)=O)CO[C@@H]1C[C@@H]2O [paclitaxel, reference compound] | – | – | – | tended to attenuate |
